In the supplement of paper PMC10307832:

Tests used:
Experiment in all cases: relative viability (nuclei count vs DMSO), 5 days (fraction); higher = more cells survive
Tosedostat + Trametinib = compound: CC(C)C[C@@H](C(=O)N[C@H](C(=O)OC1CCCC1)c1ccccc1)[C@H](O)C(=O)NO [Tosedostat] + CC(=O)Nc1cccc(-n2c(=O)n(C3CC3)c(=O)c3c(Nc4ccc(I)cc4F)n(C)c(=O)c(C)c32)c1 [Trametinib] (partner 0.02 µM)
Summary of the method: (§1)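 Lung cancer cell lines, seeded in 1536-well plates, were treated the following day by pin tool with a single drug or with five library-drug doses (not always all listed) in √10 steps on top of a fixed anchor-drug dose. Cells were fixed and nuclei stained in one step after 5 days, and nuclei were counted. Relative viability is the nuclei count for treated wells divided by that for vehicle wells, reported as medians of duplicate plates.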

Tosedostat + Pictilisib = compound: CC(C)C[C@@H](C(=O)N[C@H](C(=O)OC1CCCC1)c1ccccc1)[C@H](O)C(=O)NO [Tosedostat] + CS(=O)(=O)N1CCN(Cc2cc3nc(-c4cccc5[nH]ncc45)nc(N4CCOCC4)c3s2)CC1 [Pictilisib] (partner 1 µM)
Summary of the method: as §1

Tosedostat + AZD7762 = compound: CC(C)C[C@@H](C(=O)N[C@H](C(=O)OC1CCCC1)c1ccccc1)[C@H](O)C(=O)NO [Tosedostat] + NC(=O)Nc1cc(-c2cccc(F)c2)sc1C(=O)N[C@H]1CCCNC1 [AZD7762] (partner 0.2 µM)
Summary of the method: as §1

[1] = compound: CC1=NN=C(O1)C2=NN=C(C=C2)N3CCC(CC3)OC4=C(C=CC(=C4)F)Cl + N=C(N)NC(=N)NCCc1ccccc1 [Phenformin] (partner 250 µM)
Summary of the method: as §1

| Cell Line | relative viability (Tosedostat + Trametinib; first compound 0.02 µM) | relative viability (Tosedostat + Trametinib; first compound 0.06325 µM) | relative viability (Tosedostat + Trametinib; first compound 0.2 µM) | relative viability (Tosedostat + Trametinib; first compound 0.6325 µM) | relative viability (Tosedostat + Trametinib; first compound 2 µM) | relative viability (Tosedostat + Pictilisib; first compound 0.02 µM) | relative viability (Tosedostat + Pictilisib; first compound 0.06325 µM) | relative viability (Tosedostat + Pictilisib; first compound 0.2 µM) | relative viability (Tosedostat + Pictilisib; first compound 0.6325 µM) | relative viability (Tosedostat + Pictilisib; first compound 2 µM) | relative viability (Tosedostat + AZD7762; first compound 0.02 µM) | relative viability (Tosedostat + AZD7762; first compound 0.06325 µM) | relative viability (Tosedostat + AZD7762; first compound 0.2 µM) | relative viability (Tosedostat + AZD7762; first compound 0.6325 µM) | relative viability (Tosedostat + AZD7762; first compound 2 µM) | relative viability ([1]; first compound 0.8 µM) | relative viability ([1]; first compound 2.53 µM) | relative viability ([1]; first compound 8 µM) | relative viability ([1]; first compound 0.253 µM) |
| --- | --- | --- | --- | --- | --- | --- | --- | --- | --- | --- | --- | --- | --- | --- | --- | --- | --- | --- | --- |
| NCI-H1975 | 0.35 | 0.401 | 0.453 | 0.359 | 0.344 | 0.28 | 0.311 | 0.252 | 0.25 | 0.241 | 0.768 | 0.776 | 0.7 | 0.654 | 0.608 | 0.33 | 0.421 | 0.387 |  |
| ChaGo-K-1 | 0.903 | 0.862 | 0.895 | 0.867 | 0.645 | 1.1 | 0.813 | 0.754 | 0.812 | 0.638 | 0.957 | 0.889 | 0.81 | 0.767 | 0.603 | 0.373 | 0.545 | 0.381 | 0.471 |
| NCI-H1437 | 0.552 | 0.523 | 0.631 | 0.469 | 0.547 | 0.407 | 0.448 | 0.277 | 0.232 | 0.256 | 1.14 | 1.15 | 1.14 | 1.08 | 0.904 | 0.236 | 0.288 | 0.252 | 0.209 |
| NCI-H2126 | 0.493 | 0.59 | 0.568 | 0.584 | 0.481 | 0.506 | 0.533 | 0.513 | 0.437 | 0.472 | 0.99 | 1.03 | 0.919 | 0.974 | 0.953 | 0.507 | 0.53 | 0.528 | 0.486 |
| LU99A | 0.51 | 0.47 | 0.567 | 0.544 | 0.47 | 0.343 | 0.317 | 0.295 | 0.258 | 0.221 | 0.369 | 0.333 | 0.374 | 0.293 | 0.297 | 0.822 | 0.821 | 0.71 | 0.885 |
| NCI-H460 | 0.157 | 0.197 | 0.204 | 0.181 | 0.217 | 0.31 | 0.407 | 0.353 | 0.365 | 0.365 | 0.728 | 0.66 | 0.709 | 0.665 | 0.705 | 0.309 | 0.291 | 0.258 | 0.298 |
| LCLC-97TM1 | 0.19 | 0.202 | 0.232 | 0.177 | 0.161 | 0.177 |  |  | 0.147 | 0.186 | 0.291 | 0.209 | 0.164 | 0.197 | 0.195 | 0.396 | 0.427 | 0.437 | 0.501 |
| NCI-H838 | 0.559 | 0.446 | 0.52 | 0.596 | 0.59 | 0.522 | 0.5 | 0.456 | 0.652 | 0.638 | 0.999 | 0.928 | 0.893 | 0.973 | 1 | 0.434 | 0.515 | 0.504 | 0.588 |
| H3255 | 0.61 | 0.582 | 0.528 | 0.608 | 0.599 | 0.659 | 0.45 | 0.409 | 0.42 | 0.533 | 1.04 | 0.919 | 0.953 | 0.81 | 0.746 | 0.316 | 0.354 | 0.398 | 0.372 |
| NCI-H1651 | 0.777 | 0.789 | 0.897 | 0.869 | 0.742 | 0.729 | 0.64 | 0.503 | 0.55 | 0.451 | 0.458 | 0.486 | 0.588 | 0.439 | 0.384 | 0.487 | 0.368 | 0.325 | 0.367 |
| LXF-289 | 0.744 | 0.651 | 0.661 | 0.703 | 0.687 | 0.818 | 0.766 | 0.752 | 0.784 | 0.676 | 1.17 | 1.08 | 1.19 | 1.05 | 1.08 | 0.393 | 0.504 | 0.465 | 0.509 |
| HCC-827 | 0.545 | 0.571 | 0.552 | 0.505 | 0.518 | 1.02 | 0.991 | 1.3 | 0.885 | 1.09 | 0.201 | 0.257 | 0.347 | 0.176 | 0.178 | 0.258 | 0.354 | 0.36 | 0.388 |
| LK-2 | 0.903 | 0.819 | 0.614 | 0.628 | 0.78 | 0.613 | 0.583 | 0.576 | 0.606 | 0.812 | 0.459 | 0.475 | 0.381 | 0.354 | 0.617 | 0.433 | 0.661 | 0.38 | 0.576 |
| HCC-366 | 0.36 | 0.358 | 0.322 | 0.311 | 0.374 | 0.167 | 0.154 | 0.0818 | 0.151 | 0.103 | 0.291 | 0.34 | 0.428 | 0.361 | 0.485 | 0.285 | 0.309 | 0.288 | 0.286 |
| BEN | 1.17 | 1 | 1.09 | 1.21 | 1.38 | 0.679 | 0.622 | 0.556 | 0.752 | 0.804 | 0.813 | 0.724 | 0.901 | 1.12 | 1.04 | 0.265 | 0.267 | 0.301 | 0.25 |
| NCI-H322M | 0.548 | 0.501 | 0.452 | 0.456 | 0.467 | 0.532 | 0.408 | 0.45 | 0.486 | 0.391 | 0.648 | 0.56 | 0.641 | 0.613 | 0.567 | 0.742 | 0.846 | 0.731 | 0.759 |
| NCI-H1395 | 0.968 | 1.07 | 1.12 | 1.05 | 1.06 | 0.627 | 0.799 | 0.601 | 0.606 | 0.567 | 0.429 | 0.42 | 0.414 | 0.398 | 0.38 | 0.398 | 0.439 | 0.429 | 0.453 |
